# Laboratory results published in patent publication US11472844B2, “Peptidomimetics, method of synthesis and uses thereof” (priority 2017, dated 2022).
# “Also recorded” adds a separate entry of the source. *: point of attachment. X1 = CC[N+]1=C(/C=C/C=C/C=C2N(CCCCCC(=O)NCCN3C(=O)CC(*)C3=O)c3ccc(S(=O)(=O)O)cc3C2(C)C)C(C)(C)c2cc(S(=O)(=O)[O-])ccc21
# Tests used:
# trypsin = trypsin (Sus scrofa, UniProt P00761); conditions: trypsin digestion, 37°C, pH8, followed up to 24 h
# Description: Trypsin proteolysis. MUB40 (SEQ ID NO: 3)-Cy5 and RI-MUB40 (SEQ ID NO: 2)-Cy5 were dissolved in 50 mM ammonium bicarbonate, pH 8. Prior to digestion and owing to the propensity of maleimide derivatives to undergo ring-opening in a basic environment (Fontaine et al., 2015), we incubated both peptides at 37° C. overnight. Ring-opening completion was checked before trypsin addition. […] Lyophilized trypsin (Thermo scientific) was reconstituted using 50 mM acetic acid, diluted with 50 mM ammonium bicarbonate and added to the peptide solution so as to obtain a final peptide concentration of 0.25 mg/mL and a protease to protein ratio of 1:20 (w/w). Samples were directly incubated on the injection sampler thermostated at 37° c. HPLC and LC-MS analyses were performed as previously described above, applying a 15% to 40% linear gradient of acetonitrile in 10 mM ammonium acetate over 20 minutes.
# Hydrolysis experiments were done in solution at 37° c., pH8 and monitored by HPLC by measuring the peak area of the remaining intact peptides.
# [1] = test system: Colonic goblet cell granules; assay: Fluorescent labelling of colonic goblet cell granules on fixed slides; assay type: cell-based, human; conditions: 1 μg/mL
# Description: Colon explant surgical collection. In summary, human colon segments (ascending, descending, and sigmoid colon) were obtained from fully informed patients undergoing surgery for colon carcinoma and were analyzed anonymously. Patient written consent was obtained, according to the French bioethics law. None of the patients had undergone radiotherapy or chemotherapy. According to the pathologist's examination rules for the longitudinally bisected colon, a healthy segment of tissue, which was distant from the tumor region and devoid of metastatic cells, was removed. Tissues were processed according to the French Government guidelines for research on human tissues and the French Bioethics Act with the authorization no RBM 2009-50.
# Antibodies, fluorescent markers. For immunofluorescence assay, lactoferrin was detected with a mouse anti-lactoferrin primary monoclonal antibody (Hycult biotech, clone 265-1K1, 1:50 dilution) and an anti-mouse-FITC conjugated secondary antibody (1:1000). Nuclei were detected with DAPI (Life Technologies), Lyophilized MUB40 peptides (MUB40#1 (SEQ ID NO: 3)-Cy5, MUB40#2 (SEQ ID NO: 4)-Cy5, MUB40#3 (SEQ ID NO: 5)-Cy5, MUB40#4 (SEQ ID NO: 6)-Cy5, MUB40#1 (SEQ ID NO: 3)-Dylight, RI-MUB40 (SEQ ID NO: 2)-Cy5, and RI-MUB40 (SEQ ID NO: 2)-Biotin) were solubilized in a phosphate buffer pH8 at a 1 mg/mL concentration and used at a 1:1000 dilution. […]
# [2] = test system: guinea pig circulating neutrophils; assay: Labelling of fixed guinea pig neutrophils; assay type: cell-based
# Description: Polymorphonuclear neutrophils purification. Human polymorphonuclear neutrophils were purified as described previously (Monceaux et al. 2016). Briefly, plasma was removed by centrifugation (450×g, 15 min); blood cells were resuspended in 0.9% NaCl solution supplemented with 0.72% Dextran. After red blood cells sedimentation, white blood cells were pelleted and further separated on a two layer Percoll (GE Healthcare) (51%−42%) by centrifugation (at 240×g, 20 min). PBMC (top layer) were isolated from polymorphonuclear neutrophils (bottom layer). Red blood cells were removed from the latter fraction using CD235a (glycophorin) microbeads (negative selection) (Miltenyi Biotec). PBMCs and polymorphonuclear neutrophils were resuspended in the autologous plasma. Guinea pig and mouse polymorphonuclear neutrophils were purified with the same procedure.
# [3] = test system: neutrophils recruited to guinea pig colonic mucosa infected with Shigella flexneri; assay: Guinea pig model of shigellosis, staining of fixed colon sections
# Description: Guinea pig. The experimental protocol was approved by the french Ethic Committee Paris (n° 20140069, 2014). Young guinea pigs (Hartley, <150 g, Charles River) were anaesthetized and infected intrarectally with 10^9 CFU exponentially grown Shigella flexneri 5a (M90T) pGFP as previously described (Shim et al. 2007) (Monceaux et al. 2016). Infection occurred during 8 hours before animals were sacrificed and infected colons collected and fixed in 4% Paraformaldehyde (PFA) for two hours. For immunohistochemical staining, infected guinea pig colon samples were washed in PBS and incubated at 4° C. in PBS containing 16% sucrose for 4 hours, followed by incubation in PBS with 30% sucrose overnight. Samples were frozen in OCT (VWR 361603E) on dry ice. Frozen blocks were stored at −80 until sectioning. 10 to 30 μm sections were obtained using a cryostat CM-3050S (Leica). Tissue slices were labeled in PBS+0.1% saponin (Sigma-Aldrich) with MUB40-Cy5 or MUB40-Dylight (1 μg/ml) to localize recruited neutrophils. Slides were washed three time in PBS+0.1% saponin, three times in PBS, and three times in deionized H2O and mounted with prolong gold^tm mounting media.
# [4] = target: T1, human purified lactoferrin (Homo sapiens, UniProt P02788); assay: Lactoferrin polymers immunofluorescence labelling; assay type: binding; conditions: PNGase treatment; listed as MUB40-Cy5
# T1 construct: purchased Sigma-Aldrich L1294
# T1 sequence (P02788 20-710): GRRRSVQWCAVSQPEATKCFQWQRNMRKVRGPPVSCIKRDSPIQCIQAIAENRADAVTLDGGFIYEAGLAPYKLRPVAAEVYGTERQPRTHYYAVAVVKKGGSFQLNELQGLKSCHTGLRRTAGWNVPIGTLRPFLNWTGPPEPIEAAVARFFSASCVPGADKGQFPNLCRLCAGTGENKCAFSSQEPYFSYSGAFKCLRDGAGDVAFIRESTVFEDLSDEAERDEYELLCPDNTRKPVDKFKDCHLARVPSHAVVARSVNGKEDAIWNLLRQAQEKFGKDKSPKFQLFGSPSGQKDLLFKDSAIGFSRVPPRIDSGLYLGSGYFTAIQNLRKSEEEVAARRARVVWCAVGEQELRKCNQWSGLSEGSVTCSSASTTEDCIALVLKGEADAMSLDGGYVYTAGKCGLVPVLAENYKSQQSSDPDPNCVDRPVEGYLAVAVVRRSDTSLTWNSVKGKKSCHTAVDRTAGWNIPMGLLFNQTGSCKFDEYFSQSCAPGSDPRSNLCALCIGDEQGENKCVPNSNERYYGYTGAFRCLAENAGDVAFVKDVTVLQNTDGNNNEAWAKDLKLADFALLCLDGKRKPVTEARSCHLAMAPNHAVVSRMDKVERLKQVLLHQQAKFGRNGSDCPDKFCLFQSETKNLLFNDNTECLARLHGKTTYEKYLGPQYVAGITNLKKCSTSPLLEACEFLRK
# Description: Lactoferrin polymerization. Human purified lactoferrin (ref: L1294, Sigma-Aldrich) was resuspended in deionized H2O (35 μg/mL). Lactoferrin was incubated in RPMI+10 mM Hepes supplemented with 10 mM FeCl3, at indicated concentrations (0.35 or 3.5 μg/mL) onto 24-well plates containing 12 mm coverslips overnight at 37° C., adapted from similar lactoferrin polymerization experiments performed in iron saturated phosphate buffer (Mantel et al. 1994).
# Lactoferrin deglycolysation. About 10 μg of human purified lactoferrin (ref: L1294, Sigma-Aldrich) was treated by Peptide-N-Glycosidase F (PNGaseF, New England Biolabs, Ipswich Mass., USA) for N-deglycosylation. Protein was treated exactly as described in manufacturer protocol. Twelve unit of PNGase F were added for 4 h at 37° C. for the removal of N-glycosylation.
# Lactoferrin polymers interaction with MUB40-Cy5. Lactoferrin polymers were centrifuged at 2000 rpm for 10 min and fixed in Paraformaldehyde (PFA) 4% for one hour. Lactoferrin polymers were immunolabeled in PBS+0.1% saponin (Sigma-Aldrich) with a mouse anti-lactoferrin primary monoclonal antibody (Hycult biotech, clone 265-1K1, 1:50 dilution) and an anti-mouse-FITC conjugated secondary antibody (1:1000), together with MUB40-Cy5 (SEQ ID NO: 3) (1 μg/mL). Slides were washed three times in PBS and three times in deionized H2O and mounted with prolong gold^tm mounting media.
# Chain of trypsin (P00761 9-231): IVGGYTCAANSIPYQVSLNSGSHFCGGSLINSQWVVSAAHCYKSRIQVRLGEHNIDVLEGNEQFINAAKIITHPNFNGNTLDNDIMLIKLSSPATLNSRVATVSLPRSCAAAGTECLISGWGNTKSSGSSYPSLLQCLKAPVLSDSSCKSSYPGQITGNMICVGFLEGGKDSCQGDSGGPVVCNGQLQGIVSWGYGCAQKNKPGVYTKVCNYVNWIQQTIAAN
substance,measurement,setting,value
Ac-C(X1)TAEGIKKFEGDGYELFKDNFPAGEKFDNDDTNDQFYTVIF-NH2 [Cy5-MUB40#1],degradation by trypsin (in words),trypsin,almost completely degraded within 3 h
same,labelling of colonic goblet cell granules,[1],labelled
same,labelling of neutrophils,[2],efficiently labeled
same,detection of neutrophil lactoferrin secretion,"[3]; fixed guinea pig colonic mucosa infected by Shigella flexneri, 1 μg/mL",successfully revealed
same,labelling of recruited neutrophils,"[3]; guinea pig colon, Shigella flexneri, 1 μg/ml",specifically labeled
same,labelling of deglycosylated lactoferrin,[4],no longer labelled; also recorded: abolished
